Results: patent US20250018046A1, “COMPOUNDS FOR TARGETING DEGRADATION OF IRAK4 PROTEINS” (BIOGEN MA INC, priority 2021, published 2025)

The compounds below were run against T1, IRAK4 (Homo sapiens, UniProt Q9NWZ3) (assay: IRAK4 degradation assay using the HiBiT Method). Conditions: 293T cells expressing HiBiT-tagged IRAK4; 6-hour incubation; Nano-Glo HiBiT Lytic Assay luminescence.
T1 construct: knocking-in a HiBiT fusion tag into the C-terminal of the IRAK4 gene in 293T cells; host or cells: 293T cells, knock-in of HiBiT at the endogenous IRAK4 locus
T1 sequence (Q9NWZ3 1-460): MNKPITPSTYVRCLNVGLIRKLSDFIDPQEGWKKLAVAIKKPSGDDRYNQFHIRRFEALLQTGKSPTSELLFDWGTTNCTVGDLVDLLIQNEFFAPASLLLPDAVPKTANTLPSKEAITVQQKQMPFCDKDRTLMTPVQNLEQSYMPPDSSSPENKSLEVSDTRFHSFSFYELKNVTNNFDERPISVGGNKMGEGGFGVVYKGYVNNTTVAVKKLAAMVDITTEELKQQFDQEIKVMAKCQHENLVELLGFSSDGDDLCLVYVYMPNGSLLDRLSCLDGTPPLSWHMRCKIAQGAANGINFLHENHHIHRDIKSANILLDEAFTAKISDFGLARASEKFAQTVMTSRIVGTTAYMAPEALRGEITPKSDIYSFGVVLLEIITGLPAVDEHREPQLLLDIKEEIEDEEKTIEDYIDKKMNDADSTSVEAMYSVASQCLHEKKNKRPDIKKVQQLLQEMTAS
Format: cell-based
Description: Selected compounds were tested in an IRAK4 degradation assay using the HiBiT Method.
Phenol red-free Dulbecco's modified Eagle medium (DMEM) and fetal bovine serum (FBS) were purchased from Gibco (Grand Island, NY, USA). The Nano-Glo© HiBiT Lytic Assay System was purchased from Promega (Madison, WI, USA). Cell culture flasks and 384-well microplates were acquired from VWR (Radnor, PA, USA). The 293T cell line was engineered by knocking-in a HiBiT fusion tag into the C-terminal of the IRAK4 gene in 293T cells (Synthego, Redwood City, CA, USA).
IRAK4 degradation was measured via the quantification of luminescent signals using the Nano-Glo© HiBiT Lytic Assay kit. Test compounds were added to 384-well plates in duplicate using an 11-point half-log dilution series, with the highest dose set at 10 mM. 293T cells expressing HiBiT-tagged IRAK4 were then added into 384-well plates at a cell density of 10,000 cells per well. The plates were kept at 37° C. with 5% CO2 for 6 hours. Cells that were treated only with DMSO served as the negative control; wells that contained only assay media served as the background control. After the 6-hour incubation, Nano-Glo® HiBiT Lytic Assay reagents were added to the cells. Luminescence was acquired using an EnVision® Multilabel Reader (PerkinElmer, Santa Clara, CA, USA).
`CC(C)Oc1cc2nc(C3CCN(CC(=O)N4CCN(CCc5ccc(NC6CCC(=O)NC6=O)cc5)CC4)CC3)cn2cc1NC(=O)c1cccc(C(F)(F)F)n1` (stereo not drawn) [Example 19, N-[2-[1-[2-[4-[2-[4-[(2,6-dioxo-3-piperidyl)amino]phenyl]ethyl]piperazin-1-yl]-2-oxo-ethyl]-4-piperidyl]-7-isopropoxy-imidazo[1,2-a]pyridin-6-yl]-6-(trifluoromethyl) pyridine-2-carboxamide] gave a DC50 of 10 to 100 nM.
`CC(C)Oc1cc2nc(C3CCN(CC(=O)N4CCN(Cc5ccc(NC6CCC(=O)NC6=O)cc5)CC4)CC3)cn2cc1NC(=O)c1cccc(C(F)(F)F)n1` (stereo not drawn) [Example 20, N-[2-[1-[2-[4-[[4-[(2,6-dioxo-3-piperidyl)amino]phenyl]methyl]piperazin-1-yl]-2-oxo-ethyl]-4-piperidyl]-7-isopropoxy-imidazo[1,2-a]pyridin-6-yl]-6-(trifluoromethyl) pyridine-2-carboxamide] showed a DC50 of 100 to 500 nM.
Work on `CC(C)Oc1cc2nc(C3CCN(CC(=O)N4CCC(c5ccc(OC6CCC(=O)NC6=O)cc5)CC4)CC3)cn2cc1NC(=O)c1cccc(C(F)(F)F)n1` (stereo not drawn) [Example 21, N-[2-[1-[2-[4-[4-[(2,6-dioxo-3-piperidyl)oxy]phenyl]-1-piperidyl]-2-oxo-ethyl]-4-piperidyl]-7-isopropoxy-imidazo[1,2-a]pyridin-6-yl]-6-(trifluoromethyl)pyridine-2-carboxamide] yielded a DC50 of 10 to 100 nM.
In the case of `CC(C)Oc1cc2nc(C3CCN(CC(=O)N4CCN(c5ccc(C6CCC(=O)NC6=O)cc5)CC4)CC3)cn2cc1NC(=O)c1cccc(C(F)(F)F)n1` (stereo not drawn) [Example 22, N-[2-[1-[2-[4-[4-(2,6-dioxo-3-piperidyl)phenyl]piperazin-1-yl]-2-oxo-ethyl]-4-piperidyl]-7-isopropoxy-imidazo[1,2-a]pyridin-6-yl]-6-(trifluoromethyl)pyridine-2-carboxamide], the DC50 is reported as 10 to 100 nM.
Work on `CC(C)Oc1cc2nc(C3CCN(CC(=O)N4CCC(c5ccc(NC6CCC(=O)NC6=O)cc5)CC4)CC3)cn2cc1NC(=O)c1cccc(C(F)(F)F)n1` (stereo not drawn) [Example 23, N-[2-[1-[2-[4-[4-[(2,6-dioxo-3-piperidyl)amino]phenyl]-1-piperidyl]-2-oxo-ethyl]-4-piperidyl]-7-isopropoxy-imidazo[1,2-a]pyridin-6-yl]-6-(trifluoromethyl)pyridine-2-carboxamide] yielded a DC50 of 10 to 100 nM.
`CC(C)Oc1cc2nc(C3CCN(CC(=O)N4CCC(c5ccc(NC6CCC(=O)NC6=O)cc5F)CC4)CC3)cn2cc1NC(=O)c1cccc(C(F)(F)F)n1` (stereo not drawn) [Example 24, N-[2-[1-[2-[4-[4-[(2,6-dioxo-3-piperidyl)amino]-2-fluoro-phenyl]-1-piperidyl]-2-oxo-ethyl]-4-piperidyl]-7-isopropoxy-imidazo[1,2-a]pyridin-6-yl]-6-(trifluoromethyl)pyridine-2-carboxamide] gave a DC50 of 10 to 100 nM.
`CC(C)Oc1cc2nc(C3CCN(CC(=O)N4CCC(c5ccc(CN6CCC(=O)NC6=O)cc5)CC4)CC3)cn2cc1NC(=O)c1cccc(C(F)(F)F)n1` [Example 25, N-[2-[1-[2-[4-[4-[(2,4-dioxohexahydropyrimidin-1-yl)methyl]phenyl]-1-piperidyl]-2-oxo-ethyl]-4-piperidyl]-7-isopropoxy-imidazo[1,2-a]pyridin-6-yl]-6-(trifluoromethyl) pyridine-2-carboxamide] gave a DC50 of 100 to 500 nM.
With `CC(C)Oc1cc2nc(C3CCN(CC(=O)N4CCN(c5ccc6c(N7CCC(=O)NC7=O)nn(C)c6c5)CC4)CC3)cn2cc1NC(=O)c1cccc(C(F)(F)F)n1` [Example 26, N-[2-[1-[2-[4-[3-(2,4-dioxohexahydropyrimidin-1-yl)-1-methyl-indazol-6-yl]piperazin-1-yl]-2-oxo-ethyl]-4-piperidyl]-7-isopropoxy-imidazo[1,2-a]pyridin-6-yl]-6-(trifluoromethyl)pyridine-2-carboxamide] the DC50 was 100 to 500 nM.
`CC(C)Oc1cc2nc(C3CCN(CC(=O)N4CCN(c5ccc(NC6CCC(=O)NC6=O)cc5)CC4)CC3)cn2cc1NC(=O)c1cccc(C(F)(F)F)n1` (stereo not drawn) [Example 27, N-[2-[1-[2-[4-[4-[(2,6-dioxo-3-piperidyl)amino]phenyl]piperazin-1-yl]-2-oxo-ethyl]-4-piperidyl]-7-isopropoxy-imidazo[1,2-a]pyridin-6-yl]-6-(trifluoromethyl)pyridine-2-carboxamide] was tested, and the DC50 was 100 to 500 nM.
In the case of `CC(C)Oc1cc2nc(C3CCN(CC(=O)N4CCN(c5ccc(OC6CCC(=O)NC6=O)cc5)CC4)CC3)cn2cc1NC(=O)c1cccc(C(F)(F)F)n1` (stereo not drawn) [Example 28, N-[2-[1-[2-[4-[4-[(2,6-dioxo-3-piperidyl)oxy]phenyl]piperazin-1-yl]-2-oxo-ethyl]-4-piperidyl]-7-isopropoxy-imidazo[1,2-a]pyridin-6-yl]-6-(trifluoromethyl)pyridine-2-carboxamide], the DC50 is reported as 10 to 100 nM.
`CC(C)Oc1cc2nc(C3CCN(CC(=O)N4CCC(c5ccc(C6CCC(=O)NC6=O)cc5)CC4)CC3)cn2cc1NC(=O)c1cccc(C(F)(F)F)n1` (stereo not drawn) [Example 29, N-[2-[1-[2-[4-[4-(2,6-dioxo-3-piperidyl)phenyl]-1-piperidyl]-2-oxo-ethyl]-4-piperidyl]-7-isopropoxy-imidazo[1,2-a]pyridin-6-yl]-6-(trifluoromethyl)pyridine-2-carboxamide] showed a DC50 of 10 to 100 nM.
`CC(C)Oc1cc2nc(C3CCN(CCC(=O)N4CCC(c5ccc(NC6CCC(=O)NC6=O)cc5)CC4)CC3)cn2cc1NC(=O)c1cccc(C(F)(F)F)n1` (stereo not drawn) [Example 30, N-[2-[1-[3-[4-[4-[(2,6-dioxo-3-piperidyl)amino]phenyl]-1-piperidyl]-3-oxo-propyl]-4-piperidyl]-7-isopropoxy-imidazo[1,2-a]pyridin-6-yl]-6-(trifluoromethyl)pyridine-2-carboxamide] was tested, and the DC50 was 100 to 500 nM.
`CC(C)Oc1cc2nc(C3CCN(CCC(=O)N4CCC(c5ccc(NC6CCC(=O)NC6=O)cc5F)CC4)CC3)cn2cc1NC(=O)c1cccc(C(F)(F)F)n1` (stereo not drawn) [Example 31, N-[2-[1-[3-[4-[4-[(2,6-dioxo-3-piperidyl)amino]-2-fluoro-phenyl]-1-piperidyl]-3-oxo-propyl]-4-piperidyl]-7-isopropoxy-imidazo[1,2-a]pyridin-6-yl]-6-(trifluoromethyl)pyridine-2-carboxamide] showed a DC50 of 100 to 500 nM.
`CC(C)Oc1cc2nc(C3CCN(CCC(=O)N4CCC(c5ccc(C6CCC(=O)NC6=O)cc5)CC4)CC3)cn2cc1NC(=O)c1cccc(C(F)(F)F)n1` (stereo not drawn) [Example 32, N-[2-[1-[3-[4-[4-(2,6-dioxo-3-piperidyl)phenyl]-1-piperidyl]-3-oxo-propyl]-4-piperidyl]-7-isopropoxy-imidazo[1,2-a]pyridin-6-yl]-6-(trifluoromethyl)pyridine-2-carboxamide] was tested, and the DC50 was 100 to 500 nM.
For `CC(C)Oc1cc2nc(C3CCN(CCC(=O)N4CCN(c5ccc(OC6CCC(=O)NC6=O)cc5)CC4)CC3)cn2cc1NC(=O)c1cccc(C(F)(F)F)n1` (stereo not drawn) [Example 33, N-[2-[1-[3-[4-[4-[(2,6-dioxo-3-piperidyl)oxy]phenyl]piperazin-1-yl]-3-oxo-propyl]-4-piperidyl]-7-isopropoxy-imidazo[1,2-a]pyridin-6-yl]-6-(trifluoromethyl)pyridine-2-carboxamide], the DC50 was 100 to 500 nM.
For `CC(C)Oc1cc2nc(C3CN(CCC(=O)N4CCC(c5ccc(NC6CCC(=O)NC6=O)cc5)CC4)C3)cn2cc1NC(=O)c1cccc(C(F)(F)F)n1` (stereo not drawn) [Example 34, N-[2-[1-[3-[4-[4-[(2,6-dioxo-3-piperidyl)amino]phenyl]-1-piperidyl]-3-oxo-propyl]azetidin-3-yl]-7-isopropoxy-imidazo[1,2-a]pyridin-6-yl]-6-(trifluoromethyl)pyridine-2-carboxamide], the DC50 was 100 to 500 nM.
In the case of `CC(C)Oc1cc2nc(C3CCC(CN4CCC(c5ccc(C6CCC(=O)NC6=O)cc5)CC4)CC3)cn2cc1NC(=O)c1cccc(C(F)(F)F)n1` (stereo not drawn) [Example 35, N-[2-[4-[[4-[4-(2,6-dioxo-3-piperidyl)phenyl]-1-piperidyl]methyl]cyclohexyl]-7-isopropoxy-imidazo[1,2-a]pyridin-6-yl]-6-(trifluoromethyl)pyridine-2-carboxamide], the DC50 is reported as 100 to 500 nM.
Compound `CC(C)Oc1cc2nc([C@H]3CC[C@H](CN(C)C4CCN(c5ccc(NC6CCC(=O)NC6=O)cc5)CC4)CC3)cn2cc1NC(=O)c1cccc(C(F)(F)F)n1` (stereo partly drawn) [Example 36, N-[2-[4-[[[1-[4-[(2,6-dioxo-3-piperidyl)amino]phenyl]-4-piperidyl]-methyl-amino]methyl]cyclohexyl]-7-isopropoxy-imidazo[1,2-a]pyridin-6-yl]-6-(trifluoromethyl)pyridine-2-carboxamide] has a DC50 of 10 to 100 nM.
